Key:
FLT3 [1] = details: previously identified FLT3 inhibitor; read-out: IC50 against FLT3; cited from earlier work
DLK = molecular target: T1, DLK (Homo sapiens, UniProt Q12852); set-up: method as in earlier work; details: Table S1; cited from earlier work
T1 sequence (Q12852 1-859): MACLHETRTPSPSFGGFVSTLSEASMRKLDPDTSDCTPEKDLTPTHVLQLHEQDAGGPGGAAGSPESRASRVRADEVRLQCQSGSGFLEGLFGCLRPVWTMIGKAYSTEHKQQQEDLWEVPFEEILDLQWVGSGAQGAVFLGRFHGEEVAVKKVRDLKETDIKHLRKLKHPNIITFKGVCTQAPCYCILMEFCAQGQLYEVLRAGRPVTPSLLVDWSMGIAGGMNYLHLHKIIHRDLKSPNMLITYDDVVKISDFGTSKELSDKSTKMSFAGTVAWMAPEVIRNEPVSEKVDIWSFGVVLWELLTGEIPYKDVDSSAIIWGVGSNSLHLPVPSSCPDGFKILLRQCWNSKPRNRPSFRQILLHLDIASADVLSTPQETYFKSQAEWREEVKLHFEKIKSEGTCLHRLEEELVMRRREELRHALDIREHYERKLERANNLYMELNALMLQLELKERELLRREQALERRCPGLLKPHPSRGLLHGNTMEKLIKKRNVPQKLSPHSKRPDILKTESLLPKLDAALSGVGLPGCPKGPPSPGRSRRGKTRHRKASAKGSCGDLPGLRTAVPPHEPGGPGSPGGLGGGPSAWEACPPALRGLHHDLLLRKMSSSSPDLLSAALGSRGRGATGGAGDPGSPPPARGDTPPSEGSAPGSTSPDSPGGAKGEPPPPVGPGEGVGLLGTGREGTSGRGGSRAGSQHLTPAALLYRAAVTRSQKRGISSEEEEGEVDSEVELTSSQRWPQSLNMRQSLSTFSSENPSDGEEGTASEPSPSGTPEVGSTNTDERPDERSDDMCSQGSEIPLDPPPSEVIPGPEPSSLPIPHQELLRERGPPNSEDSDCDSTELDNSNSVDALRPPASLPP

CTK = molecular target: T2, CTK (Homo sapiens, UniProt P42679); assay: KINOMEscan panel screen; type: binding; details: read-out: Percent Control(%)
T2 construct: purchased DiscoveRx KINOMEscan (Ambit Biosciences)

MST3 = molecular target: T3, MST3 (Homo sapiens, UniProt Q9Y6E0); assay: KINOMEscan panel screen; type: binding; details: read-out: Percent Control(%)
T3 construct: purchased DiscoveRx KINOMEscan (Ambit Biosciences)

LIMK2 = molecular target: T4, LIMK2 (Homo sapiens, UniProt P53671); assay: KINOMEscan panel screen; type: binding; details: read-out: Percent Control(%)
T4 construct: purchased DiscoveRx KINOMEscan (Ambit Biosciences)

CAMK4 = molecular target: T5, CAMK4 (Homo sapiens, UniProt Q16566); assay: KINOMEscan panel screen; type: binding; details: read-out: Percent Control(%)
T5 construct: purchased DiscoveRx KINOMEscan (Ambit Biosciences)
T5 sequence (Q16566 1-473): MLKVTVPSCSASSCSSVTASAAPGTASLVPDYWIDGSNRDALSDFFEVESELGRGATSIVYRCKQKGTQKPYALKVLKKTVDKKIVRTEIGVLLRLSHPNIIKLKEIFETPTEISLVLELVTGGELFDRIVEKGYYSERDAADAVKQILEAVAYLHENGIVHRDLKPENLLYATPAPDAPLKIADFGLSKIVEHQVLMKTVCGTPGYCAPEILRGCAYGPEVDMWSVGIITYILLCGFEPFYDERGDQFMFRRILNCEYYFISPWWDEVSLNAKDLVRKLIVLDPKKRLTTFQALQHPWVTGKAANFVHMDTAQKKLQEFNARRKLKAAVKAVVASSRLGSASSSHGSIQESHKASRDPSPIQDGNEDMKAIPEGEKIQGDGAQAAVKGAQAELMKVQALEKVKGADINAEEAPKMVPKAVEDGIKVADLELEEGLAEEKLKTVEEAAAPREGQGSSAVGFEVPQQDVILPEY

CDK5 = molecular target: T6, CDK5 (Homo sapiens, UniProt Q00535); assay: KINOMEscan panel screen; type: binding; details: read-out: Percent Control(%)
T6 construct: purchased DiscoveRx KINOMEscan (Ambit Biosciences)

normal PBMCs = assay: CellTiterGlo viability assay, normal PBMCs; type: cell-based, human; details: 72 h
Source text: The patients’ information is listed in Supplementary Table S5. For comparison, three normal PB samples were also collected (sample #7, #8, #9). Peripheral blood mononuclear cells (PBMCs) were isolated from each sample in the following assays.
Methods used in this study were approved by the Ethics Committee of the West China Hospital. Informed consent for the use of human AML and normal peripheral blood (PB) samples for the present study was obtained from all patients according to the Declaration of Helsinki.
Effects of compounds on the PBMC viability were examined using CellTiterGlo (Promega) assays. […] The signal from the viable cells was assessed according to the manufacturer’s protocol.

EPHB3 = molecular target: T7, EPHB3 (Homo sapiens, UniProt P54753); assay: KINOMEscan panel screen; type: binding; details: read-out: Percent Control(%)
T7 construct: purchased DiscoveRx KINOMEscan (Ambit Biosciences)

AAK1 = molecular target: T8, AAK1 (Homo sapiens, UniProt Q2M2I8); assay: KINOMEscan panel screen; type: binding; details: read-out: Percent Control(%)
T8 construct: purchased DiscoveRx KINOMEscan (Ambit Biosciences)

FLT3 [2] = molecular target: T9, FLT3 (Homo sapiens, UniProt P36888); assay: KINOMEscan panel screen; type: binding; details: read-out: Percent Control(%)
T9 construct: purchased DiscoveRx KINOMEscan (Ambit Biosciences)

ACVR1B = molecular target: T10, ACVR1B (Homo sapiens, UniProt P36896); assay: KINOMEscan panel screen; type: binding; details: read-out: Percent Control(%)
T10 construct: purchased DiscoveRx KINOMEscan (Ambit Biosciences)

CDKL2 = molecular target: T11, CDKL2 (Homo sapiens, UniProt Q92772); assay: KINOMEscan panel screen; type: binding; details: read-out: Percent Control(%)
T11 construct: purchased DiscoveRx KINOMEscan (Ambit Biosciences)

HIPK3 = molecular target: T12, HIPK3 (Homo sapiens, UniProt Q9H422); assay: KINOMEscan panel screen; type: binding; details: read-out: Percent Control(%)
T12 construct: purchased DiscoveRx KINOMEscan (Ambit Biosciences)

ZAP70 = molecular target: T13, ZAP70 (Homo sapiens, UniProt P43403); assay: KINOMEscan panel screen; type: binding; details: read-out: Percent Control(%)
T13 construct: purchased DiscoveRx KINOMEscan (Ambit Biosciences)

LOK = LOK (Homo sapiens, UniProt O94804); assay: KINOMEscan panel screen; type: binding; details: read-out: Percent Control(%)
p38-beta = molecular target: T14, p38-beta (Homo sapiens, UniProt Q15759); assay: KINOMEscan panel screen; type: binding; details: read-out: Percent Control(%)
T14 construct: purchased DiscoveRx KINOMEscan (Ambit Biosciences)

RET(V804L) = molecular target: T15, RET(V804L) (Homo sapiens, UniProt P07949, V804L); assay: KINOMEscan panel screen; type: binding; details: read-out: Percent Control(%)
T15 construct: purchased DiscoveRx KINOMEscan (Ambit Biosciences)

PHKG1 = molecular target: T16, PHKG1 (Homo sapiens, UniProt Q16816); assay: KINOMEscan panel screen; type: binding; details: read-out: Percent Control(%)
T16 construct: purchased DiscoveRx KINOMEscan (Ambit Biosciences)

MST1 = molecular target: T17, MST1 (Homo sapiens, UniProt Q13043); assay: KINOMEscan panel screen; type: binding; details: read-out: Percent Control(%)
T17 construct: purchased DiscoveRx KINOMEscan (Ambit Biosciences)

PIM3 = molecular target: T18, PIM3 (Homo sapiens, UniProt Q86V86); assay: KINOMEscan panel screen; type: binding; details: read-out: Percent Control(%)
T18 construct: purchased DiscoveRx KINOMEscan (Ambit Biosciences)

EGFR(G719C) = molecular target: T19, EGFR(G719C) (Homo sapiens, UniProt P00533, G719C); assay: KINOMEscan panel screen; type: binding; details: read-out: Percent Control(%)
T19 construct: purchased DiscoveRx KINOMEscan (Ambit Biosciences)

T7 sequence (P54753 34-998): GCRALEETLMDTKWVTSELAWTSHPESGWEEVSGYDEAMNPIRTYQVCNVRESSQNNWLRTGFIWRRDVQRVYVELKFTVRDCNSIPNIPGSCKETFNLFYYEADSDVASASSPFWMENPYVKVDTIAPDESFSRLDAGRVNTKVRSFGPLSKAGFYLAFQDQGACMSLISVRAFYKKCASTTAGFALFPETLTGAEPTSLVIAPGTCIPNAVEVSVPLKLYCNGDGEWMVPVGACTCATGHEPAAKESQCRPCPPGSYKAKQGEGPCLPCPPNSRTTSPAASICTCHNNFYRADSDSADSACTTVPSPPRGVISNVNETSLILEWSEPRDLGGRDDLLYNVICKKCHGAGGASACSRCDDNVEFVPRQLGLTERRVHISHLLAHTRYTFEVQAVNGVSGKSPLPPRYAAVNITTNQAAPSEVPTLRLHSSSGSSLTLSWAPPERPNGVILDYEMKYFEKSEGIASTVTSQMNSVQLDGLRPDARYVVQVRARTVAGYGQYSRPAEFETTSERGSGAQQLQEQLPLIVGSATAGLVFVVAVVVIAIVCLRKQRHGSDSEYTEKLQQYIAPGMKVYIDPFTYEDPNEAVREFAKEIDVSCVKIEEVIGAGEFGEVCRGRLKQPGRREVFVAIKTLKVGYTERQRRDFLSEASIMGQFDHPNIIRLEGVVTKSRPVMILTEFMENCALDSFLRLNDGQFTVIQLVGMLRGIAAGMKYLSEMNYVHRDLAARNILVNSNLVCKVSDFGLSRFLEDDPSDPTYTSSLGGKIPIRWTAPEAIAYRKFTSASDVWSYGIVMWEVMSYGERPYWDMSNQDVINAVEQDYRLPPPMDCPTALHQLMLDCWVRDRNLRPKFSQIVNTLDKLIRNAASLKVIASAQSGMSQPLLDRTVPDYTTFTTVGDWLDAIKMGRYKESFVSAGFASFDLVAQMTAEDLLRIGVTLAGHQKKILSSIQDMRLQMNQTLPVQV
LOK, sequence (O94804 whole entry): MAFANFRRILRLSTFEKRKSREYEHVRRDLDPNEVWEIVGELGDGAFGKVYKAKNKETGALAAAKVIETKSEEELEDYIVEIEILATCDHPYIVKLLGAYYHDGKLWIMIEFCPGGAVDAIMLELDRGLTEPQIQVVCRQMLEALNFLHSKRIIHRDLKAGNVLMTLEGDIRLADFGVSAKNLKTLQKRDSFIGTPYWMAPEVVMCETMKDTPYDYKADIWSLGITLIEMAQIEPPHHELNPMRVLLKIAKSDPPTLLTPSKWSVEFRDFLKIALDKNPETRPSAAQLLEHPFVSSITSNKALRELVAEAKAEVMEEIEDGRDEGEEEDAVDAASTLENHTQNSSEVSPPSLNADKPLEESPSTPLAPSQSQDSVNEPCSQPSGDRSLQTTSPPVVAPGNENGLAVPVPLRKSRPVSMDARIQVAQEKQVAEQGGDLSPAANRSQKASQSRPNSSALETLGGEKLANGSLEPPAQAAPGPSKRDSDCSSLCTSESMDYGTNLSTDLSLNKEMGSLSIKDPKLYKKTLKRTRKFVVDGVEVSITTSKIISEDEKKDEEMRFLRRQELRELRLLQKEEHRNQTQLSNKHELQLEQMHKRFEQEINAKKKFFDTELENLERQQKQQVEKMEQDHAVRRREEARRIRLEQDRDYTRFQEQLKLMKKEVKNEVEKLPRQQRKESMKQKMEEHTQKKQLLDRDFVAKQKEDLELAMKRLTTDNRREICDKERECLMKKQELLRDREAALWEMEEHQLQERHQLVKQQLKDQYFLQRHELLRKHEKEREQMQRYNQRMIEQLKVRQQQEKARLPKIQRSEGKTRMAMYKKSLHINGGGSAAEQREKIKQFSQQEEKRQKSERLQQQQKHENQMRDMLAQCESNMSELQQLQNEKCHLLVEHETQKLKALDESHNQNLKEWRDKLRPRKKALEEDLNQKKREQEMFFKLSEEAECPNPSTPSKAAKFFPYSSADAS
T2 sequence (P42679 whole entry): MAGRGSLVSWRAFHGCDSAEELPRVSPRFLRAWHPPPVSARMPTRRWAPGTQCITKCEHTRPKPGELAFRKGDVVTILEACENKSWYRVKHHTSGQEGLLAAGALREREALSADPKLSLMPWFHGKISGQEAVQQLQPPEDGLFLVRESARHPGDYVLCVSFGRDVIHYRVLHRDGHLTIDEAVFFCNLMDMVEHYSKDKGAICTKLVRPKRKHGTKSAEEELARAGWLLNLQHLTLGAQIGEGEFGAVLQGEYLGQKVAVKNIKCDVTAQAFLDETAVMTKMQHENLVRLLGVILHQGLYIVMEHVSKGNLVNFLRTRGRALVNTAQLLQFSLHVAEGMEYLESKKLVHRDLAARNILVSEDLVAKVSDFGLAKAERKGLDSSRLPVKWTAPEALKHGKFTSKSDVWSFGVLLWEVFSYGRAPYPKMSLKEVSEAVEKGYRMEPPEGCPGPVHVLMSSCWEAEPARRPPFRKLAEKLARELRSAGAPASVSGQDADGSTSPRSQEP
T9 sequence (P36888 27-993): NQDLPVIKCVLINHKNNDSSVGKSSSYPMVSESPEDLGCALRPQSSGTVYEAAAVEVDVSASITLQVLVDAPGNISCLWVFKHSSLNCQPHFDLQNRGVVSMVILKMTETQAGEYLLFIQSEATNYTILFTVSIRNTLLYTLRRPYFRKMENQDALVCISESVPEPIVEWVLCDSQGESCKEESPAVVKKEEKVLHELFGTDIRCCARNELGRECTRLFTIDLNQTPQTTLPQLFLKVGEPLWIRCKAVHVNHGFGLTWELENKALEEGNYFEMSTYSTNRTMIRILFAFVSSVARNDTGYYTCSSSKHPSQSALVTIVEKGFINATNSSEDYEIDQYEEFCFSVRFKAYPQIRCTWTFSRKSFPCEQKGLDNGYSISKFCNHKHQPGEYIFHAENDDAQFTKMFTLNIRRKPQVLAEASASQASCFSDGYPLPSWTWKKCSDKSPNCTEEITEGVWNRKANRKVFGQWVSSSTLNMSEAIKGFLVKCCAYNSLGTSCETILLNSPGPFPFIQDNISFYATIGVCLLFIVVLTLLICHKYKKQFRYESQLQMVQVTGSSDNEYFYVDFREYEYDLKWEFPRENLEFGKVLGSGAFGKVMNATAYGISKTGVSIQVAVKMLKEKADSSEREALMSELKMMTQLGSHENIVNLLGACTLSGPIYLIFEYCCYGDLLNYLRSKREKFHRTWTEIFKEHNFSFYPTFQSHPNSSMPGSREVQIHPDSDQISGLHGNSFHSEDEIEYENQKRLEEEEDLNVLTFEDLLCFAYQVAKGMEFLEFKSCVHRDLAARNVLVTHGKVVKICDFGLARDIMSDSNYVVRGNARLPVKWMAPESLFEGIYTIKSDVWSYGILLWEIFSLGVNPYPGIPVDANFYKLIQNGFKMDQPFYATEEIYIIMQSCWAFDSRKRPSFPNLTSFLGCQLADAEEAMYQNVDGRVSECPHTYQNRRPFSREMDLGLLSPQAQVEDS
T12 sequence (Q9H422 whole entry): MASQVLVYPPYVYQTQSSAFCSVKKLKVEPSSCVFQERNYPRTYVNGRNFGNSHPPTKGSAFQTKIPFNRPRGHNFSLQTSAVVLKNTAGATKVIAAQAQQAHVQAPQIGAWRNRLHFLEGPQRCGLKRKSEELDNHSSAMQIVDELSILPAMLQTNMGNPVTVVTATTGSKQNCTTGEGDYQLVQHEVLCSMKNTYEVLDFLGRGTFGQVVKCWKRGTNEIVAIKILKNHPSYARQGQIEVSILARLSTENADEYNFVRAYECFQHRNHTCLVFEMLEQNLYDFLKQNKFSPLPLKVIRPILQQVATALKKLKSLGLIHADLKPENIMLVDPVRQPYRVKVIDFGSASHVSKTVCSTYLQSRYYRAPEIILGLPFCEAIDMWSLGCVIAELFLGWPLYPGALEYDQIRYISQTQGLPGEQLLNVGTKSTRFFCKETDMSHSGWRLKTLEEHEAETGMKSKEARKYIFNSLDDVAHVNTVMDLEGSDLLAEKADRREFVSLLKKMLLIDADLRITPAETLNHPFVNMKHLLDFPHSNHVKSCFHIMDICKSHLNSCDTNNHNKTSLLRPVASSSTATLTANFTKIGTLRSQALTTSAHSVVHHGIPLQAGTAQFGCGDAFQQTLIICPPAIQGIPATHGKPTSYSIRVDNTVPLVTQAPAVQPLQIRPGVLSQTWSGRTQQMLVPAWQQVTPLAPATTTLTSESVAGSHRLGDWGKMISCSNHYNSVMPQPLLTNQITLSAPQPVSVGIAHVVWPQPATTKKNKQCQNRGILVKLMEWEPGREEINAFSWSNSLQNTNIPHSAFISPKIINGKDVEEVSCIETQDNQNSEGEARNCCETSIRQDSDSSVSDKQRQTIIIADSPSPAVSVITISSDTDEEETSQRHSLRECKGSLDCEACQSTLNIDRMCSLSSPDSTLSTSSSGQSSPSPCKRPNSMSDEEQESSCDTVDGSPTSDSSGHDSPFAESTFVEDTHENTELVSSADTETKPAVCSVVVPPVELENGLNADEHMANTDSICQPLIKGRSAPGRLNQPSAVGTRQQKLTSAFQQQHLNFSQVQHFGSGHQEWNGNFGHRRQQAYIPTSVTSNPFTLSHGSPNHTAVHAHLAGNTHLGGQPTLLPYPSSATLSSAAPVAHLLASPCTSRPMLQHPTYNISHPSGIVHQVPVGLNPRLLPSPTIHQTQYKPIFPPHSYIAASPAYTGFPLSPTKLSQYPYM
T16 sequence (Q16816 whole entry): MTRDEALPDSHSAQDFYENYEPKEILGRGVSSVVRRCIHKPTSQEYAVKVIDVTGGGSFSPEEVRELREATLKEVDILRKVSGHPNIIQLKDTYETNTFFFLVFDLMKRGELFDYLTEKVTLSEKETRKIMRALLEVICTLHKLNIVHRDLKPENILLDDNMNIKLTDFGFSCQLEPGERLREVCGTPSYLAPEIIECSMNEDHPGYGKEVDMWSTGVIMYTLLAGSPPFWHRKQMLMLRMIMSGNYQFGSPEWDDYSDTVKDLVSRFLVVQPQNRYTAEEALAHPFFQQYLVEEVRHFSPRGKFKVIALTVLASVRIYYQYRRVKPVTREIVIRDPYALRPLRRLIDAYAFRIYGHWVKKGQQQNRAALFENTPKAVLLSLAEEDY

Question: With O=C(Nc1ccc(Oc2ncnc3[nH]ncc23)cc1)Nc1ccc(Cl)c(C(F)(F)F)c1 [Compound 1, 1-(4-(1H-pyrazolo[3,4-d]pyrimidin-4-yloxy)phenyl)-3-(4-chloro-3-(trifluoromethyl)phenyl)urea] as the molecule, how does the IC50 (FLT3 [1]) read?
Answer: 0.039 µM

Question: What about the IC50 (DLK) of the same molecule?
Answer: > 10 µM

Question: With CC(C)(C)c1cc(NC(=O)Nc2ccc(Oc3ncnc4[nH]ncc34)c(F)c2)no1 [SKLB-677, 1-(4-(1H-pyrazolo[3,4-d]pyrimidin-4-yloxy)-3-fluorophenyl)-3-(5-tert-butylisoxazol-3-yl)urea] as the molecule, how does the remaining binding at 10 µM (CTK) read?
Answer: 37%

Question: And the remaining binding at 10 µM (MST3)?
Answer: 46%

Question: What about the remaining binding at 10 µM (LIMK2) of the same molecule?
Answer: 7%

Question: What about the remaining binding at 10 µM (CAMK4) of the same molecule?
Answer: 85%

Question: And the remaining binding at 10 µM (CDK5)?
Answer: 4.2%

Question: And the IC50 (normal PBMCs; Homo sapiens, PBMC, sample #7, normal PBMCs)?
Answer: > 10 µM

Question: What about the IC50 (normal PBMCs; sample #8, normal PBMCs) of the same molecule?
Answer: > 10 µM

Question: What about the IC50 (normal PBMCs; sample #9, normal PBMCs) of the same molecule?
Answer: > 10 µM

Question: And the remaining binding at 10 µM (EPHB3)?
Answer: 0.8%

Question: What about the remaining binding at 10 µM (AAK1) of the same molecule?
Answer: 72%

Question: What about the remaining binding at 10 µM (FLT3 [2]) of the same molecule?
Answer: 2%

Question: And the remaining binding at 10 µM (ACVR1B)?
Answer: 100%

Question: What about the remaining binding at 10 µM (CDKL2) of the same molecule?
Answer: 1.7%

Question: What about the remaining binding at 10 µM (HIPK3) of the same molecule?
Answer: 1.2%

Question: And the remaining binding at 10 µM (ZAP70)?
Answer: 100%

Question: What about the remaining binding at 10 µM (LOK) of the same molecule?
Answer: 0%

Question: What about the remaining binding at 10 µM (p38-beta) of the same molecule?
Answer: 0.2%

Question: What about the remaining binding at 10 µM (RET(V804L)) of the same molecule?
Answer: 0%

Question: What about the remaining binding at 10 µM (PHKG1) of the same molecule?
Answer: 85%

Question: And the remaining binding at 10 µM (MST1)?
Answer: 28%

Question: And the remaining binding at 10 µM (PIM3)?
Answer: 40%

Question: And the remaining binding at 10 µM (EGFR(G719C))?
Answer: 37%
